Key:
[1] = test system: Cyperus serotinus, Rottb.; experiment: Preemergence weed control under flooded paddy conditions, CYPSE (Flatsedge); type: in vivo; details: for CYPSE: preemergence weeds, herbicidal effect rating 0-9, three to four weeks after treatment; for CYPSE herbicidal effect rating / herbicidal effect rating, CYPSE: preemergence, rated three to four weeks after treatment; as to herbicidal effect rating, CYPSE: meaning of each grade not given here
Cyperus iria = experiment: Preemergence weed control under flooded paddy conditions, CYPIR (Rice Flatsedge); type: in vivo; details: flooded paddy; for CYPIR: preemergence weeds, herbicidal effect rating 0-9, three to four weeks after treatment; for CYPIR herbicidal effect rating / herbicidal effect rating, CYPIR: preemergence, rated three to four weeks after treatment; as to herbicidal effect rating, CYPIR: meaning of each grade not given here
[2] = test system: Echinochloa oryzoides (Ard.) Fritsch.; experiment: Preemergence weed control under flooded paddy conditions, ECHORC (Watergrass (Calif.)); type: in vivo; details: flooded paddy; for ECHORC: preemergence weeds, herbicidal effect rating 0-9, three to four weeks after treatment; for ECHORC herbicidal effect rating / herbicidal effect rating, ECHORC: preemergence, rated three to four weeks after treatment; as to herbicidal effect rating, ECHORC: meaning of each grade not given here
[3] = test system: Oryza sativa, (L.) Tebonnet; experiment: Rice tolerance to post-transplant applications under flooded paddy conditions (Example 187), ORYSAT (Rice, Tebonnet); details: for ORYSAT: herbicidal effect rating 0-9, three to four weeks after treatment; for ORYSAT herbicidal effect rating / herbicidal effect rating, ORYSAT (rice tolerance): rated three to four weeks after treatment
Sagittaria pygmaea, L. = experiment: Preemergence weed control under flooded paddy conditions, SAGPY (Arrowhead (Pygmaea)); type: in vivo; details: flooded paddy; for SAGPY: preemergence weeds, herbicidal effect rating 0-9, three to four weeks after treatment; for SAGPY herbicidal effect rating / herbicidal effect rating, SAGPY: preemergence, rated three to four weeks after treatment; as to herbicidal effect rating, SAGPY: meaning of each grade not given here
[4] = test system: Monochoria vaginalis, Presl.; experiment: Preemergence weed control under flooded paddy conditions, MOOVA (Monochoria); type: in vivo; details: flooded paddy; for MOOVA: preemergence weeds, herbicidal effect rating 0-9, three to four weeks after treatment; for MOOVA herbicidal effect rating / herbicidal effect rating, MOOVA: preemergence, rated three to four weeks after treatment; as to herbicidal effect rating, MOOVA: meaning of each grade not given here

SMILES: CCSC(=O)c1nsc2ccc(-n3c(=O)cc(C(F)(F)F)n(C)c3=O)cc12 [Example 422, 1,2-Benzisothiazole-3-thiocarboxylic acid, 5-[3,6-dihydro-3-methyl-2,6-dioxo-4-(trifluoromethyl)-1(2H)-pyrimidinyl]-, S-ethyl ester]
- CYPSE ([1]; 0.0320 kg/ha): 0.0
- CYPSE ([1]; 0.0620 kg/ha): 5.0
- CYPIR (Cyperus iria; 0.0320 kg/ha): 5.0
- CYPIR (Cyperus iria; 0.0620 kg/ha): 6.0
- CYPIR (Cyperus iria; 0.1250 kg/ha): 9.0
- CYPIR (Cyperus iria; 0.2500 kg/ha): 9.0
- ECHORC ([2]; 0.0320 kg/ha): 5.0
- ECHORC ([2]; 0.0620 kg/ha): 6.0
- ECHORC ([2]; 0.1250 kg/ha): 9.0
- ECHORC ([2]; 0.2500 kg/ha): 9.0
- ORYSAT ([3]; 0.0320 kg/ha): 0.0
- ORYSAT ([3]; 0.0620 kg/ha): 0.0
- ORYSAT ([3]; 0.1250 kg/ha): 2.0
- ORYSAT ([3]; 0.2500 kg/ha): 3.0
- SAGPY (Sagittaria pygmaea, L.; 0.0320 kg/ha): 0.0
- SAGPY (Sagittaria pygmaea, L.; 0.0620 kg/ha): 0.0
- SAGPY (Sagittaria pygmaea, L.; 0.1250 kg/ha): 3.0
- SAGPY (Sagittaria pygmaea, L.; 0.2500 kg/ha): 6.0
- MOOVA ([4]; 0.0320 kg/ha): 7.0
- MOOVA ([4]; 0.0620 kg/ha): 9.0
- MOOVA ([4]; 0.1250 kg/ha): 9.0
- MOOVA ([4]; 0.2500 kg/ha): 9.0

SMILES: Cn1c(C(F)(F)F)cc(=O)n(-c2ccc3snc(C=C(F)Br)c3c2)c1=O [Example 286, 2,4(1H,3H)-Pyrimidinedione, 3-[3-(2-bromo-2-fluorovinyl)-1,2-benzisothiazol-5-yl]-1-methyl-6-(trifluoromethyl)-]
- CYPSE herbicidal effect rating ([1]; Rate 0.0320 kg/ha): 0.0
- CYPSE herbicidal effect rating ([1]; Rate 0.0620 kg/ha): 0.0
- CYPSE herbicidal effect rating ([1]; Rate 0.1250 kg/ha): 0.0
- CYPSE herbicidal effect rating ([1]; Rate 0.2500 kg/ha): 0.0
- CYPIR herbicidal effect rating (Cyperus iria; Rate 0.0320 kg/ha): 3.0
- CYPIR herbicidal effect rating (Cyperus iria; Rate 0.0620 kg/ha): 7.0
- CYPIR herbicidal effect rating (Cyperus iria; Rate 0.1250 kg/ha): 7.0
- CYPIR herbicidal effect rating (Cyperus iria; Rate 0.2500 kg/ha): 9.0
- ECHORC herbicidal effect rating ([2]; Rate 0.0320 kg/ha): 0.0
- ECHORC herbicidal effect rating ([2]; Rate 0.0620 kg/ha): 0.0
- ECHORC herbicidal effect rating ([2]; Rate 0.1250 kg/ha): 3.0
- ECHORC herbicidal effect rating ([2]; Rate 0.2500 kg/ha): 8.0
- ORYSAT herbicidal effect rating ([3]; Rate 0.0320 kg/ha): 0.0
- ORYSAT herbicidal effect rating ([3]; Rate 0.0620 kg/ha): 0.0
- ORYSAT herbicidal effect rating ([3]; Rate 0.1250 kg/ha): 1.0
- ORYSAT herbicidal effect rating ([3]; Rate 0.2500 kg/ha): 2.0
- SAGPY herbicidal effect rating (Sagittaria pygmaea, L.; Rate 0.0320 kg/ha): 0.0
- SAGPY herbicidal effect rating (Sagittaria pygmaea, L.; Rate 0.0620 kg/ha): 0.0
- SAGPY herbicidal effect rating (Sagittaria pygmaea, L.; Rate 0.1250 kg/ha): 0.0
- SAGPY herbicidal effect rating (Sagittaria pygmaea, L.; Rate 0.2500 kg/ha): 0.0
- MOOVA herbicidal effect rating ([4]; Rate 0.0320 kg/ha): 9.0
- MOOVA herbicidal effect rating ([4]; Rate 0.0620 kg/ha): 9.0
- MOOVA herbicidal effect rating ([4]; Rate 0.1250 kg/ha): 9.0
- MOOVA herbicidal effect rating ([4]; Rate 0.2500 kg/ha): 9.0

SMILES: CCc1ccc(OC)c(-c2nsc3ccc(-n4c(=O)cc(C(F)(F)F)n(C)c4=O)cc23)c1 [Example 45, 3-[3-(5-Ethyl-2-methoxyphenyl)-1,2-benzisothiazol-5-yl]-1-methyl-6-(trifluoromethyl)-2,4(1H,3H)-pyrimidinedione]
- herbicidal effect rating, CYPSE ([1]; 0.0625 kg/ha): 2.0
- herbicidal effect rating, CYPSE ([1]; 0.1250 kg/ha): 9.0
- herbicidal effect rating, CYPSE ([1]; 0.2500 kg/ha): 9.0
- herbicidal effect rating, CYPIR (Cyperus iria; 0.0313 kg/ha): 6.0
- herbicidal effect rating, CYPIR (Cyperus iria; 0.0625 kg/ha): 9.0
- herbicidal effect rating, CYPIR (Cyperus iria; 0.1250 kg/ha): 9.0
- herbicidal effect rating, CYPIR (Cyperus iria; 0.2500 kg/ha): 9.0
- herbicidal effect rating, ECHORC ([2]; 0.0313 kg/ha): 9.0
- herbicidal effect rating, ECHORC ([2]; 0.0625 kg/ha): 9.0
- herbicidal effect rating, ECHORC ([2]; 0.1250 kg/ha): 9.0
- herbicidal effect rating, ECHORC ([2]; 0.2500 kg/ha): 9.0
- herbicidal effect rating, ORYSAT (rice tolerance) ([3]; 0.0313 kg/ha): 2.0
- herbicidal effect rating, ORYSAT (rice tolerance) ([3]; 0.0625 kg/ha): 2.0
- herbicidal effect rating, ORYSAT (rice tolerance) ([3]; 0.1250 kg/ha): 3.0
- herbicidal effect rating, ORYSAT (rice tolerance) ([3]; 0.2500 kg/ha): 3.0
- herbicidal effect rating, SAGPY (Sagittaria pygmaea, L.; 0.0313 kg/ha): 0.0
- herbicidal effect rating, SAGPY (Sagittaria pygmaea, L.; 0.0625 kg/ha): 0.0
- herbicidal effect rating, SAGPY (Sagittaria pygmaea, L.; 0.1250 kg/ha): 4.0
- herbicidal effect rating, SAGPY (Sagittaria pygmaea, L.; 0.2500 kg/ha): 6.0
- herbicidal effect rating, MOOVA ([4]; 0.0313 kg/ha): 9.0
- herbicidal effect rating, MOOVA ([4]; 0.0625 kg/ha): 9.0
- herbicidal effect rating, MOOVA ([4]; 0.1250 kg/ha): 9.0
- herbicidal effect rating, MOOVA ([4]; 0.2500 kg/ha): 9.0
